Measurements taken from patent publication US8722937B2 (priority 2006, dated 2014).
Read-outs that look alike come from different tables or passages of the source.

Key:
[1] = target: FabH derived from M. tuberculosis (mtFabH) (Mycobacterium tuberculosis, UniProt P9WNG3); conditions: 10 µM
[2] = target: T1, FabH derived from E. coli (ecFabH) (Escherichia coli, UniProt P0A6R0); assay: FabH enzyme assay (coupled trichloroacetic acid precipitation assay), ecFabH; assay type: biochemical; conditions: 1 μM of test compound
T1 construct: polyhistidine (N); made in house; host or cells: E. coli
T1 sequence (P0A6R0 1-317): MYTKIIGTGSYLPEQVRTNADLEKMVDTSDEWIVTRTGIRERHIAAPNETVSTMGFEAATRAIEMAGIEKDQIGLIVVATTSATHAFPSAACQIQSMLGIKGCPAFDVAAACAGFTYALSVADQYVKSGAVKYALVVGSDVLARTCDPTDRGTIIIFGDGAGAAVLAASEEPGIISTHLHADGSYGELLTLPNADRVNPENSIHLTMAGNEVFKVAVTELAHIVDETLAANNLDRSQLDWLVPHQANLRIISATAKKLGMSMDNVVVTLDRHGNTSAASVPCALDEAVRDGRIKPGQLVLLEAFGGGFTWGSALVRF

[3] = test system: methicillin-resistant S. aureus (MRSA); assay: microbe, parasite or virus in culture; assay type: cell-based, Staphylococcus aureus; conditions: 24 h, 37° C.
S. aureus (ATCC 25923) = assay: microbe, parasite or virus in culture; assay type: cell-based, Staphylococcus aureus; conditions: 24 h, 37° C.; for zone of inhibition at 20 µg/disc: Staphylococcus aureus, ATCC25923
[4] = read-out: Zones of growth inhibition of S. aureus (ATCC 25923), areas of partial inhibition
[5] = read-out: Zones of growth inhibition of S. aureus (ATCC 25923)

Chain of FabH derived from M. tuberculosis (mtFabH) (P9WNG3 whole entry): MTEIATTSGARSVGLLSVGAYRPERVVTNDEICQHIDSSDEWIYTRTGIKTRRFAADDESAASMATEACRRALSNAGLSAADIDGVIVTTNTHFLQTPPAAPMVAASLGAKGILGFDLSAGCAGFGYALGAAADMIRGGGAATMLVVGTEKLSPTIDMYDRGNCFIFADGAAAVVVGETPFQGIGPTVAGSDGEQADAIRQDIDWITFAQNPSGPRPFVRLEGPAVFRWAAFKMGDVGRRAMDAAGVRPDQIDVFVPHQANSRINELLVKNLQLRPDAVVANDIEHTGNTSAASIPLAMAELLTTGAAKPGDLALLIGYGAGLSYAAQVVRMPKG

## COC1C(=O)N(SC)C1c1ccccc1Cl (stereo not drawn) [Compound 2a]
[1]
  Percent inhibition of mtFabH: 75%
[2]
  Percent inhibition of ecFabH: 89%

## CCSSCCNC(=O)CCNC(=O)[C@H](O)C(C)(C)COP(=O)(O)OP(=O)(O)OC[C@H]1O[C@@H](n2cnc3c(N)ncnc32)[C@H](O)[C@@H]1OP(=O)(O)O [Compound 25b]
[3]
  Zones of growth inhibition, MRSA: 0 mm
S. aureus (ATCC 25923)
  Zones of growth inhibition, S. aureus: 0 mm

## CSS(C)(=O)=O [Compound 26a, reference compound]
[3]
  Zones of growth inhibition, MRSA: 23 mm
S. aureus (ATCC 25923)
  Zones of growth inhibition, S. aureus: 22 mm

## CCSS(C)(=O)=O [Compound 26b]
[3]
  Zones of growth inhibition, MRSA: 20 mm
S. aureus (ATCC 25923)
  Zones of growth inhibition, S. aureus: 19 mm

## CCC(C)SS(C)(=O)=O (stereo not drawn) [Compound 26c]
[3]
  Zones of growth inhibition, MRSA: 23 mm
S. aureus (ATCC 25923)
  Zones of growth inhibition, S. aureus: 23 mm

## CSSc1ccc(F)c(F)c1 [Compound 33a, 3,4-Difluorophenyl Methyl Disulfide]
S. aureus (ATCC 25923); [4]
  zone of inhibition at 20 µg/disc: 11 mm

## CCSSc1ccc(F)c(F)c1 [Compound 33b, 3,4-Difluorophenyl Ethyl Disulfide]
S. aureus (ATCC 25923); [4]
  zone of inhibition at 20 µg/disc: 9 mm

## CC(C)SSc1ccc(F)c(F)c1 [Compound 33c, 3,4-Difluorophenyl Isopropyl Disulfide]
S. aureus (ATCC 25923); [4]
  zone of inhibition at 20 µg/disc: 9 mm

## CCC(C)SSc1ccc(F)c(F)c1 (stereo not drawn) [Compound 33d, Sec-Butyl 3,4-Difluorophenyl Disulfide]
S. aureus (ATCC 25923); [4]
  zone of inhibition at 20 µg/disc: 9 mm

## CCCSSc1ccc(F)c(F)c1 [Compound 33e, 3,4-Difluorophenyl n-propyl Disulfide]
S. aureus (ATCC 25923); [5]
  zone of inhibition at 20 µg/disc: 0 mm

## CCCCSSc1ccc(F)c(F)c1 [Compound 33f, n-Butyl 3,4-difluorophenyl Disulfide]
S. aureus (ATCC 25923); [4]
  zone of inhibition at 20 µg/disc: 10 mm

## CCSSc1ccccc1Cl [Compound 34b, o-Chlorophenyl Ethyl Disulfide]
S. aureus (ATCC 25923); [4]
  zone of inhibition at 20 µg/disc: 9 mm

## CC(C)SSc1ccccc1Cl [Compound 34c, o-Chlorophenyl Isopropyl Disulfide]
S. aureus (ATCC 25923); [4]
  zone of inhibition at 20 µg/disc: 11 mm

## CCC(C)SSc1ccccc1Cl (stereo not drawn) [Compound 34d, s-Butyl o-chlorophenyl Disulfide]
S. aureus (ATCC 25923); [4]
  zone of inhibition at 20 µg/disc: 10 mm

## CCCSSc1ccccc1Cl [Compound 34e, o-Chlorophenyl n-propyl Disulfide]
S. aureus (ATCC 25923); [5]
  zone of inhibition at 20 µg/disc: 0 mm

## CCCCSSc1ccccc1Cl [Compound 34f, n-Butyl o-chlorophenyl Disulfide]
S. aureus (ATCC 25923); [4]
  zone of inhibition at 20 µg/disc: 9 mm

## CSSc1ccc(C)c(C)c1 [Compound 35a, 3,4-Dimethylphenyl Methyl Disulfide]
S. aureus (ATCC 25923); [4]
  zone of inhibition at 20 µg/disc: 10 mm

## CCSSc1ccc(C)c(C)c1 [Compound 35b, 3,4-Dimethylphenyl ethyl disulfide]
S. aureus (ATCC 25923); [5]
  zone of inhibition at 20 µg/disc: 0 mm

## Cc1ccc(SSC(C)C)cc1C [Compound 35c, 3,4-Dimethylphenyl Isopropyl Disulfide]
S. aureus (ATCC 25923); [4]
  zone of inhibition at 20 µg/disc: 9 mm
